{"source": "ChEMBL document CHEMBL6103618", "about": "“Discovery of Novel Oxazolo[4,3-f]purine Derivatives as Antitumor Agents through PPIA Interaction” (J Med Chem, 2025)", "key": {"[1]": {"experiment": "Toxicity in BALB/c mouse implanted with mouse CT26 cells assessed as injury in spleen at 15 to 45 mg/kg, ip qd treated for 14 days by H and E staining based analysis", "type": "organism-based", "conditions": "in vivo, 336 h, dose 15-45 mg/kg, time 14 day"}, "CT26 [2]": {"tested_on": "CT26", "experiment": "Antitumor activity against mouse CT26 cells implanted in BALB/c mouse assessed as necrosis in tumor tissue at 15 to 45 mg/kg, ip qd treated for 14 days by H and E staining based analysis", "type": "functional, organism-based", "conditions": "dose 15-45 mg/kg, time 14.0 day"}, "HCT-116 [3]": {"tested_on": "HCT-116", "experiment": "Induction of ER stress in human HCT-116 cells assessed as increase in ATF4 level at 0.3 to 1.2 uM by Western blot analysis", "type": "functional, cell-based", "conditions": "dose 0.3-1.2 µM"}, "MCF7": {"tested_on": "MCF7", "experiment": "Antiproliferative activity against human MCF7 cells assessed as inhibition of cell viability incubated for 48 hrs by CCK8 assay", "type": "functional, cell-based", "conditions": "MCF7, 48 h"}, "HCT-116 [4]": {"tested_on": "HCT-116", "experiment": "Induction of apoptosis in human HCT-116 cells assessed as late apoptotic cells at 0.6 uM incubated for 48 hrs by Annexin V-FITC/PI staining based flow cytometry (reference value: 1.55 %)", "type": "functional"}, "HCT-116 [5]": {"tested_on": "HCT-116", "experiment": "Induction of cell cycle arrest in human HCT-116 cells assessed as accumulation at S phase at 0.6 uM incubated for 48 hrs by PI staining based flow cytometry (reference value: 34.55 %)", "type": "functional"}, "[6]": {"experiment": "Acute toxicity in BALB/c mouse assessed as death rate at 350 mg/kg, ip measured for 14 days", "type": "organism-based", "conditions": "both, in vivo, time 14 day, read-out: Activity"}, "HCT-116 [7]": {"tested_on": "HCT-116", "experiment": "Induction of apoptosis in human HCT-116 cells assessed as decrease in Bcl-2 level at 0.3 to 1.2 uM incubated for 48 hrs by Western blot analysis", "type": "functional, cell-based", "conditions": "dose 0.3-1.2 µM"}, "HCT-116 [8]": {"tested_on": "HCT-116", "experiment": "Induction of cell cycle arrest in human HCT-116 cells assessed as decrease in cyclin A2 level incubated for 48 hrs by Western blot analysis", "type": "functional, cell-based", "conditions": "dose 0.3-1.2 µM"}, "[9]": {"molecular_target": "T1, Peptidyl-prolyl cis-trans isomerase A (Homo sapiens, UniProt P62937)", "experiment": "Binding affinity to CM5 chip-immobilized PPIA (unknown origin) assessed as dissociation constant by SPR analysis"}, "HCT-116 [10]": {"tested_on": "HCT-116", "experiment": "Cytotoxicity against human HCT-116 cells harboring siNC assessed as inhibition of cell viability incubated for 48 hrs by CCK8 assay", "type": "functional, cell-based", "conditions": "HCT-116, 48 h"}, "HCT-116 [11]": {"tested_on": "HCT-116", "experiment": "Induction of cell cycle arrest in human HCT-116 cells assessed as accumulation at G2 phase at 0.6 uM incubated for 48 hrs by PI staining based flow cytometry (reference value: 6.08 %)", "type": "functional"}, "HCT-116 [12]": {"tested_on": "HCT-116", "experiment": "Induction of mitochondrial dysfunction in human HCT-116 cells at 1.2 uM in presence of NAC by JC-1 dye based analysis", "type": "functional, cell-based"}, "HCT-116 [13]": {"tested_on": "HCT-116", "experiment": "Induction of cell cycle arrest in human HCT-116 cells assessed as accumulation at G1 phase at 1.2 uM incubated for 48 hrs by PI staining based flow cytometry (reference value: 59.37 %)", "type": "functional"}, "[14]": {"molecular_target": "T1, Peptidyl-prolyl cis-trans isomerase A", "experiment": "Binding affinity to PPIA in human HCT-116 cells assessed as protein stability incubated for 30 mins followed by pronase addition measured after 30 mins by DARTS assay", "type": "cell-based", "conditions": "dose <= 6.0 µM, time 60.0 min"}, "HCT-116 [15]": {"tested_on": "HCT-116", "experiment": "Induction of cell cycle arrest in human HCT-116 cells assessed as accumulation at G2 phase at 0.3 uM incubated for 48 hrs by PI staining based flow cytometry (reference value: 6.08 %)", "type": "functional"}, "HCT-116 [16]": {"tested_on": "HCT-116", "experiment": "Induction of intracellular ROS generation in human HCT-116 cells at 1.2 uM in presence of NAC by flow cytometry", "type": "functional, cell-based"}, "HCT-116 [17]": {"tested_on": "HCT-116", "experiment": "Anti-migration activity in human HCT-116 cells harboring siNC at 1.2 uM incubated for 24 hrs by wound healing assay", "type": "functional, cell-based"}, "HCT-116 [18]": {"tested_on": "HCT-116", "experiment": "Anti-migration activity in human HCT-116 cells harboring siPPIA-3 at 1.2 uM incubated for 24 hrs by wound healing assay", "type": "functional, cell-based"}, "HCT-116 [19]": {"tested_on": "HCT-116", "experiment": "Induction of apoptosis in human HCT-116 cells assessed as increase in Bax level at 1.2 uM in presence of NAC by Western blot analysis", "type": "functional, cell-based"}, "HCT-116 [20]": {"tested_on": "HCT-116", "experiment": "Effect on HSPA1A expression in human HCT-116 cells upto 6 uM incubated for 30 mins followed by pronase addition measured after 30 mins by DARTS assay", "type": "functional, cell-based"}, "HCT-116 [21]": {"tested_on": "HCT-116", "experiment": "Effect on VCP expression in human HCT-116 cells upto 6 uM incubated for 30 mins followed by pronase addition measured after 30 mins by DARTS assay", "type": "functional, cell-based"}, "HCT-116 [22]": {"tested_on": "HCT-116", "experiment": "Anti-proliferative activity against human HCT-116 cells harboring siPPIA-3 assessed as decrease in p-ERK1/2 level at 1.2 uM by Western blot analysis", "type": "functional, cell-based"}, "HCT-116 [23]": {"tested_on": "HCT-116", "experiment": "Induction of apoptosis in human HCT-116 cells assessed as early apoptotic cells at 1.2 uM incubated for 48 hrs by Annexin V-FITC/PI staining based flow cytometry (reference value: 1.12 %)", "type": "functional"}, "CT26 [24]": {"tested_on": "CT26", "experiment": "Antiproliferative activity against mouse CT26 cells assessed as inhibition of cell viability incubated for 48 hrs by CCK8 assay", "type": "functional, cell-based", "conditions": "CT26, 48 h"}, "[25]": {"experiment": "Toxicity in BALB/c mouse implanted with mouse CT26 cells assessed as injury in kidney at 15 to 45 mg/kg, ip qd treated for 14 days by H and E staining based analysis", "type": "organism-based", "conditions": "in vivo, 336 h, dose 15-45 mg/kg, time 14 day"}, "[26]": {"experiment": "Toxicity in BALB/c mouse implanted with mouse CT26 cells assessed as abnormality in liver at 15 to 45 mg/kg, ip qd treated for 14 days by H and E staining based analysis", "type": "organism-based", "conditions": "in vivo, 336 h, dose 15-45 mg/kg, time 14 day"}, "HCT-116 [27]": {"tested_on": "HCT-116", "experiment": "Induction of ER stress in human HCT-116 cells assessed as increase in PERK level at 0.3 to 1.2 uM by Western blot analysis", "type": "functional, cell-based", "conditions": "dose 0.3-1.2 µM"}, "[28]": {"experiment": "Toxicity in BALB/c mouse implanted with mouse CT26 cells assessed as injury in lung at 15 to 45 mg/kg, ip qd treated for 14 days by H and E staining based analysis", "type": "organism-based", "conditions": "in vivo, 336 h, dose 15-45 mg/kg, time 14 day"}, "HCT-116 [29]": {"tested_on": "HCT-116", "experiment": "Induction of cell cycle arrest in human HCT-116 cells assessed as accumulation at G1 phase at 0.6 uM incubated for 48 hrs by PI staining based flow cytometry (reference value: 59.37 %)", "type": "functional"}, "HCT-116 [30]": {"tested_on": "HCT-116", "experiment": "Induction of apoptosis in human HCT-116 cells at 1.2 uM in presence of NAC by Annexin V-FITC/PI staining based flow cytometry", "type": "functional, cell-based"}, "HCT-116 [31]": {"tested_on": "HCT-116", "experiment": "Induction of apoptosis in human HCT-116 cells assessed as early apoptotic cells at 0.3 uM incubated for 48 hrs by Annexin V-FITC/PI staining based flow cytometry (reference value: 1.12 %)", "type": "functional"}, "[32]": {"experiment": "Toxicity in BALB/c mouse implanted with mouse CT26 cells assessed as injury in liver at 15 to 45 mg/kg, ip qd treated for 14 days by H and E staining based analysis", "type": "organism-based", "conditions": "in vivo, 336 h, dose 15-45 mg/kg, time 14 day"}, "HCT-116 [33]": {"tested_on": "HCT-116", "experiment": "Induction of apoptosis in human HCT-116 cells harboring siNC assessed as viable cells at 1.2 uM by Annexin V-FITC/PI staining based flow cytometry (reference value: 96.9 %)", "type": "functional", "conditions": "read-out: Activity"}, "HCT-116 [34]": {"tested_on": "HCT-116", "experiment": "Induction of cell cycle arrest in human HCT-116 cells assessed as decrease in CDK4 level incubated for 48 hrs by Western blot analysis", "type": "functional, cell-based", "conditions": "dose 0.3-1.2 µM"}, "HepG2": {"tested_on": "HepG2", "experiment": "Antiproliferative activity against human HepG2 cells assessed as inhibition of cell viability incubated for 48 hrs by CCK8 assay", "type": "functional, cell-based", "conditions": "HepG2, 48 h"}}, "note": "The source made the active and inactive calls. The calls are words filed in the database; no cut-off is given here.", "data": [{"smiles": "C=C(C(=O)OC)N1c2nc(Cl)nc(Cl)c2N2C(c3ccccc3F)OC(C(=O)OCC)(C(=O)OCC)C12", "note": "(racemic)", "values": [{"measurement": "Activity", "setting": "[1]", "value": "Non-toxic"}, {"measurement": "Activity", "setting": "CT26 [2]", "value": "Active"}, {"measurement": "Activity", "setting": "HCT-116 [3]", "value": "Active"}, {"measurement": "IC50", "setting": "MCF7", "value": 1190, "unit": "nM"}, {"measurement": "Activity", "setting": "HCT-116 [4]", "value": 5.53, "unit": "%"}, {"measurement": "Activity", "setting": "HCT-116 [5]", "value": 28.97, "unit": "%"}, {"measurement": "mortality at 336 h", "setting": "[6]", "value": 20, "unit": "%"}, {"measurement": "Activity", "setting": "HCT-116 [7]", "value": "Active"}, {"measurement": "Activity", "setting": "HCT-116 [8]", "value": "Dose-dependent-effect"}, {"measurement": "Kd", "setting": "[9]", "value": 520, "unit": "nM"}, {"measurement": "IC50", "setting": "HCT-116 [10]", "value": 470, "unit": "nM"}, {"measurement": "Activity", "setting": "HCT-116 [11]", "value": 4.71, "unit": "%"}, {"measurement": "Activity", "setting": "HCT-116 [12]", "value": "inactive"}, {"measurement": "Activity", "setting": "HCT-116 [13]", "value": 69.07, "unit": "%"}, {"measurement": "Activity", "setting": "[14]", "value": "Dose-dependent-effect"}, {"measurement": "Activity", "setting": "HCT-116 [15]", "value": 6.26, "unit": "%"}, {"measurement": "Activity", "setting": "HCT-116 [16]", "value": "inactive"}, {"measurement": "Activity", "setting": "HCT-116 [17]", "value": "Active"}, {"measurement": "Activity", "setting": "HCT-116 [18]", "value": "inactive"}, {"measurement": "Activity", "setting": "HCT-116 [19]", "value": "inactive"}, {"measurement": "Activity", "setting": "HCT-116 [20]", "value": "No effect"}, {"measurement": "Activity", "setting": "HCT-116 [21]", "value": "No effect"}, {"measurement": "Activity", "setting": "HCT-116 [22]", "value": "inactive"}, {"measurement": "Activity", "setting": "HCT-116 [23]", "value": 21.3, "unit": "%"}, {"measurement": "IC50", "setting": "CT26 [24]", "value": 860, "unit": "nM"}, {"measurement": "Activity", "setting": "[25]", "value": "Non-toxic"}, {"measurement": "Activity", "setting": "[26]", "value": "Non-toxic"}, {"measurement": "Activity", "setting": "HCT-116 [27]", "value": "Active"}, {"measurement": "Activity", "setting": "[28]", "value": "Non-toxic"}, {"measurement": "Activity", "setting": "HCT-116 [29]", "value": 66.32, "unit": "%"}, {"measurement": "Activity", "setting": "HCT-116 [30]", "value": "inactive"}, {"measurement": "Activity", "setting": "HCT-116 [31]", "value": 11.7, "unit": "%"}, {"measurement": "Activity", "setting": "[32]", "value": "Non-toxic"}, {"measurement": "viability at 1.2 µM", "setting": "HCT-116 [33]", "value": 77.8, "unit": "%"}, {"measurement": "Activity", "setting": "HCT-116 [34]", "value": "Dose-dependent-effect"}, {"measurement": "IC50", "setting": "HepG2", "value": 2160, "unit": "nM"}]}]}
